# Results taken from US9550772B2, “Azaindole derivatives as multi kinase inhibitors” (ORIBASE PHARMA, priority 2012, dated 2017).
# Like-named read-outs stand apart in the source and are kept apart here.
# Key:
# [1] = system: HUVEC cells; experiment: In vitro cell proliferation assay (MTT); assay type: cell-based; conditions: Homo sapiens, 72 hr, read-out: EC50, anti-proliferative activity
# How it was run: (§1)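 Seed cells (cancer lines 5×10^3/well; HRMEC 1×10^4/well); add escalating compound, 10 nM to 3 μM, in duplicate; incubate 72 hr; measure proliferation with MTT; fit sigmoidal dose-response for EC50, normalizing to DMSO-treated (0%) and 1% SDS (100%) wells.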
# [2] = system: HepG2 cell line; experiment: In vitro cell proliferation assay (MTT); assay type: cell-based; conditions: Homo sapiens, HepG2, 72 hr, read-out: EC50, anti-proliferative activity
# How it was run: as §1
# [3] = system: HuH7 cell line; experiment: In vitro cell proliferation assay (MTT); assay type: cell-based; conditions: Homo sapiens, Huh-7, HuH7, 72 hr, read-out: EC50, anti-proliferative activity
# How it was run: as §1
# [4] = system: HRMEC cells; experiment: In vitro cell proliferation assay (MTT); assay type: cell-based; conditions: 72 hr, read-out: EC50, anti-proliferative activity
# How it was run: as §1
# [5] = system: MDA-MB-231 cell line; experiment: In vitro cell proliferation assay (MTT); assay type: cell-based; conditions: Homo sapiens, MDA-MB-231, 72 hr, read-out: EC50, anti-proliferative activity
# How it was run: as §1
# [6] = system: HeLa cell line; experiment: In vitro cell proliferation assay (MTT); assay type: cell-based; conditions: Homo sapiens, 72 hr, 100 nM < EC50 < 1 μM, read-out: EC50, anti-proliferative activity
# How it was run: as §1
# [7] = system: A549 cell line; experiment: In vitro cell proliferation assay (MTT); assay type: cell-based; conditions: Homo sapiens, A549, 72 h, read-out: EC50, anti-proliferative activity
# How it was run: as §1
# [8] = system: HuCCT1 cell line; experiment: In vitro cell proliferation assay (MTT); assay type: cell-based; conditions: Homo sapiens, HuCCT-1, HuCCT1, 72 hr, read-out: EC50, anti-proliferative activity
# How it was run: as §1
# [9] = system: HuH6 Clone 5 cell line; experiment: In vitro cell proliferation assay (MTT); assay type: cell-based; conditions: HUH-6-clone5, HuH6 Clone 5, 72 hr, read-out: EC50, anti-proliferative activity
# How it was run: as §1
# [10] = molecular target: T1, KDR (VEGFR2) (Homo sapiens, UniProt P35968); experiment: In vitro kinase assay (Z'-LYTE, Invitrogen); assay type: biochemical; conditions: compound at 100 nM, ATP Km apparent, read-out: % of inhibition of the kinase compared to the control
# T1 construct: purchased Invitrogen
# How it was run: (§2)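 Z′-LYTE FRET assay: kinase phosphorylation protects the dual-labelled peptide from protease cleavage, read as donor/acceptor emission ratio. Conditions were ATP at apparent Km, 50 mM HEPES pH 7.5, 10 mM MgCl2, 1 mM EGTA, 0.01% BRIJ-35 and 1% DMSO, with compounds tested at 100 nM.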
# [11] = molecular target: T2, SRC (Homo sapiens, UniProt P12931); experiment: In vitro kinase assay (Z'-LYTE, Invitrogen); assay type: biochemical; conditions: compound at 100 nM, ATP Km apparent, read-out: % of inhibition of the kinase compared to the control
# T2 construct: purchased Invitrogen
# How it was run: as §2
# [12] = molecular target: T3, PDGFRA (PDGFR alpha) (Homo sapiens, UniProt P16234); experiment: In vitro kinase assay (Z'-LYTE, Invitrogen); assay type: biochemical; conditions: compound at 100 nM, ATP Km apparent, read-out: % of inhibition of the kinase compared to the control
# T3 construct: purchased Invitrogen
# How it was run: as §2
# [13] = molecular target: T4, FGFR2 (Homo sapiens, UniProt P21802); experiment: In vitro kinase assay (Z'-LYTE, Invitrogen); assay type: biochemical; conditions: compound at 100 nM, ATP Km apparent, read-out: % of inhibition of the kinase compared to the control
# T4 construct: purchased Invitrogen
# How it was run: as §2
# [14] = molecular target: T5, EGFR (ErbB1) (Homo sapiens, UniProt P00533); experiment: In vitro kinase assay (Z'-LYTE, Invitrogen); assay type: biochemical; conditions: compound at 100 nM, ATP Km apparent, read-out: % of inhibition of the kinase compared to the control
# T5 construct: purchased Invitrogen
# How it was run: as §2
# [15] = molecular target: T6, BRAF (Homo sapiens, UniProt P15056); experiment: In vitro kinase assay (Z'-LYTE, Invitrogen); assay type: biochemical; conditions: compound at 100 nM, ATP Km apparent, read-out: % of inhibition of the kinase compared to the control
# T6 construct: purchased Invitrogen
# How it was run: as §2
# [16] = system: H1975 cell line; experiment: In vitro cell proliferation assay (MTT); assay type: cell-based; conditions: Homo sapiens, NCI-H1975, H1975, 72 hr, read-out: EC50, anti-proliferative activity
# How it was run: as §1
# [17] = system: HT29 cell line; experiment: In vitro cell proliferation assay (MTT); assay type: cell-based; conditions: Homo sapiens, HT-29, HT29, 72 hr, EC50 ≧ 1 μM, read-out: EC50, anti-proliferative activity
# How it was run: as §1
# [18] = molecular target: T7, EGFR (ErbB1) T790M L858R (Homo sapiens, UniProt P00533, L858R/T790M); experiment: In vitro kinase assay (Z'-LYTE, Invitrogen); assay type: biochemical; conditions: compound at 100 nM, ATP Km apparent, read-out: % of inhibition of the kinase compared to the control
# T7 construct: purchased Invitrogen
# How it was run: as §2
# T3 sequence (P16234 24-1089): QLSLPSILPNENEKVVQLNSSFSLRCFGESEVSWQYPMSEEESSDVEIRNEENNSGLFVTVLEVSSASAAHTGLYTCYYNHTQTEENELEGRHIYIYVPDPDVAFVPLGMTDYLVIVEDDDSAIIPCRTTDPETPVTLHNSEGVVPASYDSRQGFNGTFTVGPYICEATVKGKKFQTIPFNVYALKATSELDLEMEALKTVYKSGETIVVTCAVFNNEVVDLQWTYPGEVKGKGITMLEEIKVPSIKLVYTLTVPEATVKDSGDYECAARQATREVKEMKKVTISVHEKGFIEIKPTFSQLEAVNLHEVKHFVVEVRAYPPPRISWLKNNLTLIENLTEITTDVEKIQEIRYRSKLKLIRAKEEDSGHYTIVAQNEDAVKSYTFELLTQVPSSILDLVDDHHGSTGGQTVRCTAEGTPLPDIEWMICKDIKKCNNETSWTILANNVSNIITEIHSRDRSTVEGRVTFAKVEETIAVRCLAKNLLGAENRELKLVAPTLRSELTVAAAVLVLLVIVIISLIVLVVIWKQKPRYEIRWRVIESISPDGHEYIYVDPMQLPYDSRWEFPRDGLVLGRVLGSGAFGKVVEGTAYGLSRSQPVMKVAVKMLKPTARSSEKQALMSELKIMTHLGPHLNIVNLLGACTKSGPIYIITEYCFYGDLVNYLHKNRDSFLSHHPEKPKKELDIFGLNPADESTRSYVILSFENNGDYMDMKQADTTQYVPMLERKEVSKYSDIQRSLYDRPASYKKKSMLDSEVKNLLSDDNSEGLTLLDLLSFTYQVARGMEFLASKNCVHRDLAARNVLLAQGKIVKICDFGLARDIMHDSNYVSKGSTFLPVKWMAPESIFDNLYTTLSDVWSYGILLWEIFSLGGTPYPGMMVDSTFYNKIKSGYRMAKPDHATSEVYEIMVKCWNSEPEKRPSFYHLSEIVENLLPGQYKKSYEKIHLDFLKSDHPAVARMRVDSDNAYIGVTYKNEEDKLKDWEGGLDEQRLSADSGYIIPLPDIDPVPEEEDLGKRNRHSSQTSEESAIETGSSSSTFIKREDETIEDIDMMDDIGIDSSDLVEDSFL
# T7 sequence (P00533 25-1210 T790M/L858R): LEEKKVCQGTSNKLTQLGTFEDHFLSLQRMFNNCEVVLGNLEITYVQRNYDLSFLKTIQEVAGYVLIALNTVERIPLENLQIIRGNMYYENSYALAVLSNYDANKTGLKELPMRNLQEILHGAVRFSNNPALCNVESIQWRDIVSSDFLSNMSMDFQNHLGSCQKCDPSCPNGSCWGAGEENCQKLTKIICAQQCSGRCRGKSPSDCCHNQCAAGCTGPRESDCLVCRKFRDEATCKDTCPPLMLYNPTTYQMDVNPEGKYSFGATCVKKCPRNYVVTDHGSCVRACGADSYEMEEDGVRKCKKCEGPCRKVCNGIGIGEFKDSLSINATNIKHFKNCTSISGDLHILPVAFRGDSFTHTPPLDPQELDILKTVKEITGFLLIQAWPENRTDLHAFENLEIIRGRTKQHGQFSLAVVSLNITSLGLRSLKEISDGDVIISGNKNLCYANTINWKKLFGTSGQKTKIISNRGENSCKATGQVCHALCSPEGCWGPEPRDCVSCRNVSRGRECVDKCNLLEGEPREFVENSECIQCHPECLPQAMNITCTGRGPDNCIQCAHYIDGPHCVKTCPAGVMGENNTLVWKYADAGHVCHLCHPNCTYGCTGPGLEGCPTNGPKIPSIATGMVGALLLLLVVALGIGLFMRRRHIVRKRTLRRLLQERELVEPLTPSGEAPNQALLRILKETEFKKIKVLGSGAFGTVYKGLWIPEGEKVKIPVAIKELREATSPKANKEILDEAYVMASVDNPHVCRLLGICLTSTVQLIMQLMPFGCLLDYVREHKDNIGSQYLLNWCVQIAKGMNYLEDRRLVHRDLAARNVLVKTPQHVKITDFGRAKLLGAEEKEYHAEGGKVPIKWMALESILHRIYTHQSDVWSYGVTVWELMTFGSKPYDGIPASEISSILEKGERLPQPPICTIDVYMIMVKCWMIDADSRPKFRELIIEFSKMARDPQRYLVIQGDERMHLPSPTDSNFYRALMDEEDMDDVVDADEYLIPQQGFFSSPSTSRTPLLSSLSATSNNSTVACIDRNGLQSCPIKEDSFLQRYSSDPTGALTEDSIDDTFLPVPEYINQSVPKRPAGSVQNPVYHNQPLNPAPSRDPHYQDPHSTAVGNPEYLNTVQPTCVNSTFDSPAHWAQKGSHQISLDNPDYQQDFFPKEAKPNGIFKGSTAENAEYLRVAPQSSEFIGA
# T1 sequence (P35968 20-1356): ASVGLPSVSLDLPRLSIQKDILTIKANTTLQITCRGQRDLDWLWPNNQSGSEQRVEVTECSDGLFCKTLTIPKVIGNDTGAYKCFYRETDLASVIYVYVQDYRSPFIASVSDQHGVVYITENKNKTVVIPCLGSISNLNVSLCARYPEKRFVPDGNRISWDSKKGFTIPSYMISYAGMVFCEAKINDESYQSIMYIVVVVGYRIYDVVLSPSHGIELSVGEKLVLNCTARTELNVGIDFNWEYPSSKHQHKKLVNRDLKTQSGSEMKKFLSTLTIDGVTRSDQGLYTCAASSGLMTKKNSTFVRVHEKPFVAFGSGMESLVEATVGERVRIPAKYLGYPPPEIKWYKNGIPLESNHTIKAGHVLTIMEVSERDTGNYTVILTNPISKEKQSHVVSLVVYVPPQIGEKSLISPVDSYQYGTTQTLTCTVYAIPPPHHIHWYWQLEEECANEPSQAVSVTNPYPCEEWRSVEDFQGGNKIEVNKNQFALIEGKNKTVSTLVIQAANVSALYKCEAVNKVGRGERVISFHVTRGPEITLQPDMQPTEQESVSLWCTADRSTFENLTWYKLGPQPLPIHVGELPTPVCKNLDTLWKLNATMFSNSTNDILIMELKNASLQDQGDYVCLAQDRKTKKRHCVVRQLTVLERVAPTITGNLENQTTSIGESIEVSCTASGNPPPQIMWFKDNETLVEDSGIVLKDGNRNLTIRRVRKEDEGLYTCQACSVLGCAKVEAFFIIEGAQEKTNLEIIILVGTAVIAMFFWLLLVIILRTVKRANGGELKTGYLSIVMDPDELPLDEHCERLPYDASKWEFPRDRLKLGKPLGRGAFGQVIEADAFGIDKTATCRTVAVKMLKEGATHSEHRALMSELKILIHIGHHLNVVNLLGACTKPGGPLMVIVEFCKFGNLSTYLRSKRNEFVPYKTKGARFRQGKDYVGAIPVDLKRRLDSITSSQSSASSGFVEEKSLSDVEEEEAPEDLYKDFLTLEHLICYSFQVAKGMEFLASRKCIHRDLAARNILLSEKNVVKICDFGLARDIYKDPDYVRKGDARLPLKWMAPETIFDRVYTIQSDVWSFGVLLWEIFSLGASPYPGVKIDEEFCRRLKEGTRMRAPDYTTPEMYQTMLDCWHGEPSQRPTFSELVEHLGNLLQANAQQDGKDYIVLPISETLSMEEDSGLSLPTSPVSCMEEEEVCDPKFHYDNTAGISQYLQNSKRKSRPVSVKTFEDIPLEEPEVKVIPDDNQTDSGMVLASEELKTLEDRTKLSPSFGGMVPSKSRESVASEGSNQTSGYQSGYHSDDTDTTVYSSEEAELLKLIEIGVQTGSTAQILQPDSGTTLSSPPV
# T4 sequence (P21802 22-821): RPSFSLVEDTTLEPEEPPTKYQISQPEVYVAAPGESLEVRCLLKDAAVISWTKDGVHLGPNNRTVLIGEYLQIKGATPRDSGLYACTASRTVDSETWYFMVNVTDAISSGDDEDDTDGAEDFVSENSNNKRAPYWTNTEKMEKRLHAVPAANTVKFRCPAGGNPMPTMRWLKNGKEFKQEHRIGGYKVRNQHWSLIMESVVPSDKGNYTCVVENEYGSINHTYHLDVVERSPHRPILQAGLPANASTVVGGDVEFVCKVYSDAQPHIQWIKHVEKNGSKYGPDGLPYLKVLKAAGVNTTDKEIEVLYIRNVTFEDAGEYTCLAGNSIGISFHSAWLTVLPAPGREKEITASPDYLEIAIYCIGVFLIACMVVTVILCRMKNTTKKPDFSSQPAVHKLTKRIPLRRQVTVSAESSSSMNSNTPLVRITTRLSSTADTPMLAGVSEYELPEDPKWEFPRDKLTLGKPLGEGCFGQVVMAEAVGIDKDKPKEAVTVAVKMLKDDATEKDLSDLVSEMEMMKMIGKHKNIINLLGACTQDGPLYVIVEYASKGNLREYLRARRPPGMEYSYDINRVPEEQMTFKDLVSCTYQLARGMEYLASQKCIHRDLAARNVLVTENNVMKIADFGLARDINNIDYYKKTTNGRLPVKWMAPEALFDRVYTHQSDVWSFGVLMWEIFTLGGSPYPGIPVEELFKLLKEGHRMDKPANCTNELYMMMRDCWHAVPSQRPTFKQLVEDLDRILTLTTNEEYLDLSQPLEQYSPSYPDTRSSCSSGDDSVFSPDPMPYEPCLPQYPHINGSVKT
# T2 sequence (P12931 whole entry): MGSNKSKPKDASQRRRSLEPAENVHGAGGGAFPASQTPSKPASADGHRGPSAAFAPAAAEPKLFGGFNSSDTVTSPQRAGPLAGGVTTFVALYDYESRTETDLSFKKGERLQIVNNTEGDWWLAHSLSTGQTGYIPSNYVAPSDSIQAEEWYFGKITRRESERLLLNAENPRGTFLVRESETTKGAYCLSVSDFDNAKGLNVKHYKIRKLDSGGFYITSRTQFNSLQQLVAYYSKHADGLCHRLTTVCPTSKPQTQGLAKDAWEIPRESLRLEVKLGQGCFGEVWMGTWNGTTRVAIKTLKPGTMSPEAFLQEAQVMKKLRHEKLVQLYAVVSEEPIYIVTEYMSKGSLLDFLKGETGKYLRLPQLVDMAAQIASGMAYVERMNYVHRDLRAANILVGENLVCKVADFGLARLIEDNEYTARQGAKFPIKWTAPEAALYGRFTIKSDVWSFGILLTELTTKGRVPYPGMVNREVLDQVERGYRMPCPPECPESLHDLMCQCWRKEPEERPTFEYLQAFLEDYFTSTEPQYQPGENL
EC50 ([2]; 100 nM < EC50 < 1 μM),EC50 [6],EC50 ([7]; EC50 ≦ 100 nM),inhibition at 0.1 µM [10],inhibition at 0.1 µM [11],inhibition at 0.1 µM [12],inhibition at 0.1 µM [13],inhibition at 0.1 µM [14],inhibition at 0.1 µM [15],EC50 ([16]; EC50 ≧ 1 μM),EC50 [17],inhibition at 0.1 µM [18],EC50 ([3]; 100 nM < EC50 < 1 μM),Compound,EC50 ([1]; EC50 ≦ 100 nM),EC50 ([8]; EC50 ≧ 1 μM),EC50 ([4]; EC50 ≧ 1 μM),other results
100 to 1000 nM,100 to 1000 nM,≤ 100 nM,≥ 50%,≥ 50%,≥ 50%,≥ 50%,≥ 50%,≥ 50%,,,,,"CC(=O)c1cc2cc(CCc3cc(NC(=O)c4ccc(CN5CCN(C)CC5)c(C(F)(F)F)c4)ccc3C)cnc2[nH]1 [OR0797, N-{3-[2-(2-Acetyl-1H-pyrrolo[2,3-b]pyridin-5-yl)-ethyl]-4-methyl-phenyl}-4-(4-methyl-piperazin-1-ylmethyl)-3-trifluoromethyl-benzamide]",≤ 100 nM,≥ 1000 nM,,EC50 ([3]; EC50 ≦ 100 nM): ≤ 100 nM; EC50 ([4]; EC50 ≦ 100 nM): ≤ 100 nM; EC50 ([5]; EC50 ≦ 100 nM): ≤ 100 nM; EC50 ([9]; 100 nM < EC50 < 1 μM): 100 to 1000 nM
,,,< 50%,< 50%,≥ 50%,< 50%,≥ 50%,< 50%,≥ 1000 nM,≥ 1000 nM,< 50%,,"COC(=O)c1cc2cc(CNc3cc(NC(=O)c4ccc(CN5CCN(C)CC5)cc4)ccc3C)cnc2[nH]1 [OR0746, 5-({2-Methyl-5-[4-(4-methyl-piperazin-1-ylmethyl)-benzoylamino]-phenylamino}-methyl)-1H-pyrrolo[2,3-b]pyridine-2-carboxylic acid methyl ester]",,≥ 1000 nM,≥ 1000 nM,EC50 ([1]; EC50 ≧ 1 μM): ≥ 1000 nM; EC50 ([2]; EC50 ≧ 1 μM): ≥ 1000 nM; EC50 ([7]; EC50 ≧ 1 μM): ≥ 1000 nM
,,,≥ 50%,< 50%,≥ 50%,< 50%,< 50%,< 50%,,,,,"COC(=O)c1cc2cc(C=Cc3cc(NC(=O)c4ccc(CN5CCN(C)CC5)cc4)ccc3C)cnc2[nH]1 [OR0776, 5-(-2-{2-Methyl-5-[4-(4-methyl-piperazin-1-ylmethyl)-benzoylamino]-phenyl}-vinyl)-1H-pyrrolo[2,3-b]pyridine-2-carboxylic acid methyl ester]",,,≥ 1000 nM,
,,,≥ 50%,≥ 50%,≥ 50%,< 50%,≥ 50%,< 50%,≥ 1000 nM,≥ 1000 nM,< 50%,,"COC(=O)c1cc2cc(COc3cc(NC(=O)c4ccc(CN5CCN(C)CC5)cc4)ccc3C)cnc2[nH]1 [OR0779, 5-{2-Methyl-5-[4-(4-methyl-piperazin-1-ylmethyl)-benzoylamino]-phenoxymethyl}-1H-pyrrolo[2,3-b]pyridine-2-carboxylic acid methyl ester]",,≥ 1000 nM,≥ 1000 nM,EC50 ([1]; EC50 ≧ 1 μM): ≥ 1000 nM; EC50 ([2]; EC50 ≧ 1 μM): ≥ 1000 nM; EC50 ([7]; EC50 ≧ 1 μM): ≥ 1000 nM
100 to 1000 nM,100 to 1000 nM,≤ 100 nM,≥ 50%,≥ 50%,≥ 50%,≥ 50%,≥ 50%,≥ 50%,≥ 1000 nM,≥ 1000 nM,,100 to 1000 nM,"CC(=O)c1cc2cc(CCc3cc(NC(=O)c4ccc(CN5CC[C@H](N(C)C)C5)c(C(F)(F)F)c4)ccc3C)cnc2[nH]1 [OR0812, N-{3-[2-(2-Acetyl-1H-pyrrolo[2,3-b]pyridin-5-yl)-ethyl]-4-methyl-phenyl}-4-((S)-3-dimethylamino-pyrrolidin-1-ylmethyl)-3-trifluoromethyl-benzamide]",,,,EC50 ([1]; 100 nM < EC50 < 1 μM): 100 to 1000 nM; EC50 ([4]; 100 nM < EC50 < 1 μM): 100 to 1000 nM; EC50 ([5]; 100 nM < EC50 < 1 μM): 100 to 1000 nM
100 to 1000 nM,100 to 1000 nM,≤ 100 nM,≥ 50%,≥ 50%,≥ 50%,≥ 50%,≥ 50%,≥ 50%,,,,100 to 1000 nM,"CC(=O)c1cc2cc(CCc3cc(NC(=O)c4ccc(CN5CCC(N(C)C)C5)c(C(F)(F)F)c4)ccc3C)cnc2[nH]1 (centres unmarked) [OR0798, N-{3-[2-(2-Acetyl-1H-pyrrolo[2,3-b]pyridin-5-yl)-ethyl]-4-methyl-phenyl}-4-(3-dimethylamino-pyrrolidin-1-ylmethyl)-3-trifluoromethyl-benzamide]",≤ 100 nM,≥ 1000 nM,,EC50 ([4]; 100 nM < EC50 < 1 μM): 100 to 1000 nM; EC50 ([5]; 100 nM < EC50 < 1 μM): 100 to 1000 nM; EC50 ([9]; 100 nM < EC50 < 1 μM): 100 to 1000 nM
100 to 1000 nM,100 to 1000 nM,≤ 100 nM,≥ 50%,≥ 50%,≥ 50%,≥ 50%,≥ 50%,≥ 50%,,≥ 1000 nM,≥ 50%,100 to 1000 nM,"COC(=O)c1cc2cc(CCc3cc(NC(=O)c4ccc(CN5CCN(C)CC5)c(C(F)(F)F)c4)ccc3C)cnc2[nH]1 [OR0748, 5-(2-{2-Methyl-5-[4-(4-methyl-piperazin-1-ylmethyl)-3-trifluoromethyl-benzoylamino]-phenyl}-ethyl)-1H-pyrrolo[2,3-b]pyridine-2-carboxylic acid methyl ester]",≤ 100 nM,,,EC50 ([16]; 100 nM < EC50 < 1 μM): 100 to 1000 nM; EC50 ([5]; EC50 ≦ 100 nM): ≤ 100 nM; EC50 ([7]; 100 nM < EC50 < 1 μM): 100 to 1000 nM; EC50 ([8]; 100 nM < EC50 < 1 μM): 100 to 1000 nM; EC50 ([9]; EC50 ≧ 1 μM): ≥ 1000 nM
